Source: patent US20100069316A1, “TREATMENT FOR MULTIPLE MYELOMA” (Ares Trading S.A., priority 2006, published 2010)

Legend:
Format in all cases: cell-based, human
[1] = system: myeloma cell lines (XG-3 and XG-12); test: Cells in S phase (BrdU) in myeloma cell lines; conditions: XG-3 and XG-12, IC10, IC50, IC90 doses
Procedure: The cell cycle distribution of the cell lines was assessed by flow cytometry analysis by propidium iodide (PI) and bromodeoxyuridine (BrdU) double-staining. Thirty minutes before stopping the culture, BrdU (10 μM) were added to the cultures and then the cells were collected by centrifugation, washed twice in phosphate buffer saline (PBS) and fixed in 70% ethanol for 20 minutes at room temperature. After two washes with PBS, cells were resuspended in 50 μL of 3N HCl, 0.5% Tween 20 and incubated 20 minutes at 20° C. to denature DNA. […] The fluorescence of FL1-H (BrdU) and FL2-A (PI) were analyzed on a FACScan flow cytometer using Cell Quest software (Becton Dickinson).
(§1) Two myeloma cell lines (XG-3 and XG-12) that are sensitive to compound A (1-(4-{4-[4-(4-chlorophenyl)-pyrimidin-2-ylamino]-benzoyl}-piperazin-1-yl)-ethanone) were selected for the study. To assess the effect of compound A on myeloma cell survival, the percentage apoptotic cells was determined using binding of annexin V to apoptotic cells. The effect of compound A on the cell cycle was assessed by evaluating the percentage of cells in the S phase of the cell cycle by incorporation of BrdU-FITC. Apoptosis, cell cycle and cell numeration were evaluated daily on a four day culture period on the cell lines using the IC10, IC50 and I90 respective doses of compound A.

XG3 myeloma cell line = test: Cell proliferation assay (tritiated thymidine incorporation), XG3; conditions: Homo sapiens, XG3, alone or with fixed Velcade/Melphalan
Procedure: (§2) Myeloma cells were harvested in the exponential growth phase (at day 3 after culture passage when the cell concentration is around 5×10^5 cells/ml). Cells were washed twice, cultured for 3 hours in RPMI1640 and 10% FCS, washed twice. This makes it possible to remove cell-bound growth factors (in particular recombinant IL-6). Then cells are plated in 96-well flat-bottomed microplates at various concentrations depending on their doubling time: • 5×10^3 cells/well in 100 μl for the cell lines: XG-1, XG-7 • 10^4 cells/well in […] for the cell lines: XG-2, XG-4, XG-6, XG-11, PRMI8226, L363 • 2×10^4 cells/well in 100 μl for the cell lines: XG-3, XG-12, XG-13, XG-14, XG-19, XG-20
(§3) The culture medium used were: • PRMI1640, 10% FCS and 0.5 ng/ml of IL-6 for XG-1, XG-2, XG-3, XG-4, XG-6, XG-7, XG-11, XG-12, XG-13, XG-19, XG-20 cells • X-VIVO20 and 0.5 ng/ml IL-6 for XG-14 cells • PRMI1640 and 10% FCS for RPMI8226 and L363 cells
(§4) The diluted compounds, DMSO or control culture medium were added in 100 μl at the start of the culture. Three culture wells were done for one compound dilution and the experiments were done twice (finally six culture wells for one compound dilution).
(§5) Cells were cultured for 4 days. Eight hours before the end of the culture, 0.5 μCi of tritiated thymidine were added in 50 μl of RPMI1640 and 10% FCS. Cells were then extracted with a cell collector and the thymidine incorporation was determined using a beta cell counter.
(§6) For each experiment, the mean tritiated thymidine incorporations (mean values determined on three culture wells) were plotted against the logarithmic concentrations of the compound. The curves were fitted with exponential regression, which was determined using the concentrations defining the inhibition response (usually 3-4 concentrations).
(§7) The concentrations yielding 50% and 90% inhibition of the proliferation of myeloma cells were determined with these regression curves.
The concentration yielding 10% (IC10) or 50% (IC50) inhibition of the myeloma cell lines were determined and the data are listed in Table 2.
Compound A was tested in combination with melphalan or Velcade. Increasing concentration of compound A (0, 0.01, 0.03, 0.12, 0.37, 1.1, 3.1, 10, 30 μM) were applied on 4 myeloma cell lines alone or in combination with Velcade or melphalan at concentration yielding around 10% or 50% inhibition.

10 myeloma cell lines = test: Cell proliferation assay, mean over 10 myeloma cell lines; conditions: mean determined on 10 myeloma cell lines
Procedure: as §2, §3, §4, §5, §6, §7

XG-12 myeloma cell line = test: Cell numeration, XG-12; conditions: day 3 of culture
Procedure: as §1

IC50 (XG3 myeloma cell line; concentration of compound A yielding 50% inhibition of proliferation, read-out: IC50): 1.49 µM
IC90 (XG3 myeloma cell line; concentration of compound A yielding 90% inhibition of proliferation): 6.35 µM
IC50 (10 myeloma cell lines; Homo sapiens, read-out: mean concentration yielding 50% inhibition): 3.3 µM
SMILES: CC(=O)N1CCN(C(=O)c2ccc(Nc3nccc(-c4ccc(Cl)cc4)n3)cc2)CC1 [Compound A, 1-(4-{4-[4-(4-Chloro-phenyl)-pyrimidin-2-ylamino]-benzoyl}-piperazin-1-yl)-ethanone]
number of cells in the S phase of the cell cycle [1]: induced a decrease in the number of cell in the S phase
mean concentration yielding 10% inhibition (10 myeloma cell lines): 1 µM
mean concentration yielding 90% inhibition (10 myeloma cell lines): 10 µM
Cells (×10^6/ml) cell counts (XG-12 myeloma cell line; XG-12, compound A at IC50 concentration): 0.35 ×10^6/ml
Cells (×10^6/ml) cell counts (XG-12 myeloma cell line; XG-12, compound A at IC90 concentration): 0.11 ×10^6/ml
